Source: patent publication US7384758B2, “Bioluminescent protease assay with modified aminoluciferin or derivatives thereof” (Promeaga Corporation, priority 2002, dated 2008)
“And” between values parts separate entries of the source, which are not always exact repeats. Identical values can stand only once. Blank lines part the entries; values can stand above or below the molecule they belong to.

Legend:
[1] = tested on: thermostable firefly luciferase; test: luminescent reaction with luciferin or aminoluciferin as luciferase substrate (FIG. 1); format: biochemical; details: substrate for thermostable firefly luciferase, FIG. 1
Excerpt: FIG. 1 depicts relative light units (RLU) for luciferin or aminoluciferin as a substrate for a thermostable firefly luciferase in a luminescent reaction.

caspase 3 = target: T1, caspase 3 (Homo sapiens, UniProt P42574); test: caspase titration, luminescent vs fluorescent substrate in Apo-ONE buffer (Example 3); format: biochemical
T1 construct: approximately 10 mU/ng protein with >75% in active conformation; purchased Upstate Biotech 14-264
T1 sequence (P42574 29-175 limits assumed): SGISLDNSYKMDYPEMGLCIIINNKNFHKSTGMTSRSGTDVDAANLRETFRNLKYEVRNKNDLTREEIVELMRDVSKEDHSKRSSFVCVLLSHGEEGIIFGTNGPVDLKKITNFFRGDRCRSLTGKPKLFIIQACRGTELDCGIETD
T1 sequence (P42574 176-277 limits assumed): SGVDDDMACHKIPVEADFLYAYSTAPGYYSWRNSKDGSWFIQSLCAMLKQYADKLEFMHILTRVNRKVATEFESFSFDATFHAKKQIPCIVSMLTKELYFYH
Description: To conduct a direct comparison between luminescent and fluorescent substrates for caspase 3, DEVD-Rho-110 and DEVD-aminoluciferin were employed. The DEVD-aminoluciferin substrate/luciferase/ATP mixture was prepared first and preincubated prior to the enzyme assay to eliminate free aminoluciferin. To 1.25 ml of Apo-ONE™ buffer (Promega) was added 10 μl of DEVD-luciferin (10 mM stock), 10 μl of ATP (0.1 M stock), 50 μl of MgSO4 (1 M stock), 50 μl of prionex (10% stock), and 48 μl of luciferase (5.2 mg/ml stock). The volume was brought up to 2.5 ml with nanopure, autoclaved water to make a 2× stock of 40 μM DEVD-luciferin, 400 μM ATP, 0.2% prionex, and 100 μg/ml luciferase. This stock was incubated overnight at room temperature.
Caspase (Upstate Biotech, Cat. No.14-264; approximately 10 mU/ng protein with >75% in active conformation) was diluted 550 fold in a 50/50 mixture of Apo-ONE™ buffer/RPMI-1640 culture media, from 1 U/μl to 1.8 mU/μl. 50 μl of Apo-One™ buffer/RPMI-1640 media was added to each well in two 96-well plates. Then, 5.5 μl of the caspase stock was added to the 50 μL of Apo-One™ buffer/RPMI-1640 media for a concentration of about 10 mU/50 μl. Ten serial dilutions of 10 fold each were carried out in the wells by serially transferring 5.5 μl of caspase solution into the 50 μl of the buffer/media mix. The final caspase concentrations were 10 mU, 1 mU, 0.1 mU, 0.01 mU, 0.001 mU, 0.1 μU, 0.01 μU, 0.001 μU, 0.1 nU, and 0.01 nU/well. The last two columns were buffer/media only without caspase.
To one plate of caspase dilutions, 50 μl of the DEVD-aminoluciferin substrate mixture was added to each well for final concentrations of 20 μM DEVD-aminoluciferin, 200 μM ATP, 10 mM MgSO4, 0.1% prionex, and 50 μg/ml luciferase. […] Readings were taken for each plate at 1 hour, 3 hours, and 5 hours on a luminometer and fluorimeter, respectively.
Signal to noise was calculated as above and the limit of detection was determined as 3 S.D. above the background noise.

Jurkat cells = test: caspase activity in Jurkat cells induced to undergo apoptosis with anti-FAS antibody (Example 4); format: cell-based; details: for sensitivity greater than the Arg-Rho110: Jurkat cells, FIG. 11
Description: The DEVD-aminoluciferin caspase substrate and the DEVD-Rho-110 caspase substrate were used to measure caspase activity in Jurkat cells induced to undergo apoptosis with anti-FAS antibody. DEVD-luciferin and luciferase were prepared for pre-incubation prior to use in the assay. Substrate, ATP, MgSO4, prionex and luciferase were diluted from the same stock as in Example 3 to the same 2× concentration, except that the components were diluted in autoclaved water rather than Apo-ONE™. This mixture was incubated overnight in the dark (covered in foil).
The next day, Jurkat cells, grown in RPMI-1640 media with 10% Fetal Bovine Serum (FBS) to a density of 5×10^5 cells/ml, were treated with anti-FAS antibody. To one vial of 8 ml of media was added 1.6 μl of antibody (1:5000 dilution); a second vial contained 8 ml of media and no antibody. Cells were incubated for 4 hours at 37° C., in 5% CO2 Cells were then centrifuged and resuspended in 12.5 ml of RPMI-1640 to a density of 3.2×10^5 cells/ml, then diluted 1:1 with Apo-ONE™ buffer for 1.6×10^5 cells/ml, or 8,000 per 50 μl.
Two 96-well plates were prepared such that on each, the first column was left empty, and 50 μl of RPMI-1640:Apo-ONE™ solution was placed in each of the remaining wells. To the first four rows of each plate, […] of the “induced” cell solution (8,000 cells) was added and the cells then serially diluted from 8,000 cells/well, to 4,000 cells/well and so on, down to 7.8 cells/well. The twelfth column was left without cells and with only 50 μl of RPMI-1640:Apo-ONE™ solution. […]
Signal to noise was calculated (signal minus background (no cell control)/S.D. of background) and the limit of detection was determined as 3 S.D. above the background noise.
One of the two plates was treated with 50 μl of either DEVD-aminoluciferin/luciferase mix or with DEVD-Rho-110/Apo-ONE™ (Promega G778B and G777B). Each plate was mixed on a plate shaker for 30 seconds then incubated at room temperature and read on either a Dynex luminometer or Fluoroskan plate reader at 1 hour, 2 hours, 4 hours and one day later.

trypsin = target: T2, trypsin (Bos taurus, UniProt P00760); test: trypsin titration, homogeneous luminescent vs fluorescent substrate assay (Examples 1 and 2); format: biochemical; details: for limit of detection (trypsin): 3 S.D. above background noise, amount of trypsin
T2 construct: gene PRSS1
T2 sequence (P00760 24-246): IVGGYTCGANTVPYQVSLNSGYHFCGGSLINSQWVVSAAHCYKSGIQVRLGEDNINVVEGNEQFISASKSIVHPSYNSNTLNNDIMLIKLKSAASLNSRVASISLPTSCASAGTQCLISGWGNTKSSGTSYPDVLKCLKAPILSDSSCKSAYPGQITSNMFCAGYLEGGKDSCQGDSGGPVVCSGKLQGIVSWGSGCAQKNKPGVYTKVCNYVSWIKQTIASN
Description: To compare the limit of detection for a luminescence-based and a fluorescence-based assay for trypsin, two substrates, Lys-aminoluciferin (Cbz-modified lysinyl-aminoluciferin) and Arg-Rho-110 (Molecular Probes, Catalog no. R6501), were used. Substrate was resuspended in 100 mM Hepes, pH 7.9, at a concentration of 10 mM and stored at −20° C. The thawed Lys-aminoluciferin substrate, thermostable luciferase (5.2 mg/ml stock), and ATP (0.1 M stock) were diluted in buffer (50 mM HEPES, pH 7.9, 10 mM MgSO4, 1 mM EDTA, pH 8.2 and 0.1% prionex) to make a stock that was 10× the final concentration. The 10× stock was 200 μM Lys-aminoluciferin, 200 μg/ml luciferase, and 2.0 mM ATP. This 10× stock was incubated for at least 90 minutes to eliminate any free aminoluciferin.
Trypsin was prepared for titration as follows: 1 μg/μl stock solution was diluted to 10 ng/50 μl in the same buffer as above (50 mM HEPES, pH 7.9, 10 mM MgSO4, 1 mM EDTA, pH 8.2 and 0.1% prionex). This […] trypsin solution was serially diluted 5 fold to 2 ng, 0.4 ng, 0.08 ng, 0.016 ng, 3.2 pg, 0.64 pg, 0.128 pg, 0.0256 pg and 0.005 pg. The trypsin dilutions were added to two 96-well plates in replicates of 8 at 50 μl per well. Pipette tips were changed for each row to avoid enzyme carryover. Two columns (16 wells) contained buffer only without trypsin.
One of the two plates of the trypsin dilutions was then used to test the Lys-aminoluciferin substrate (FIG. 3). Samples were tested in quadruplicate. The 10× substrate/luciferase/ATP mix was further diluted 5 fold in the above-described buffer to make a 2× stock. 50 μl of this 2× stock was added to each well containing 50 μl of the trypsin titration such that the final 100 μl volume contained 20 μM Lys-aminoluciferin, 200 μM ATP, and 20 μg/ml of thermostable luciferase in buffer (50 mM HEPES, pH 7.9, 10 mM MgSO4, 1 mM EDTA, pH 8.2 and 0.1% prionex). The substrate mix was also added to 12 of the 16 wells containing buffer only without trypsin. The remaining 4 wells were left with buffer only (no substrate mix). This plate was incubated at room temperature and read by luminometer at 45 minutes and 3 hours after adding the substrate mix to the trypsin.
The second plate of trypsin dilutions was used to test the Arg-Rho-110 substrate (FIG. 4). The Arg-Rho-110 substrate was tested at final concentrations of 10 μM and 2.5 μM. 2× stocks of 20 μM and 5 μM were prepared by diluting the substrate in 50 mM HEPES, pH 7.9, 10 mM MgSO4, 1 mM EDTA, pH 8.2 and 0.1% prionex. To each well of the plate containing 50 μl of the trypsin titration was added 50 μl of either the 20 μM or 5 μM 2× stocks of Arg-Rho-110 substrate. The 20 μM stock was added to the first four rows (final concentration of 10 μM in rows A-D) and the 5 μM stock was added to the second four rows (final concentration of 2.5 μM in rows E-H). The substrate mix was also added to 12 of the 16 wells containing buffer only without trypsin. The remaining 4 wells were left with buffer only (no substrate mix). The Arg-Rho-110 plate was incubated at room temperature in the dark for 4.5 hours and read on a fluorimeter.
The signal to noise was calculated as signal-background (no trypsin)/S.D. of background. The limit of detection was determined as 3 S.D. above background noise.
To determine the effect of an overnight pre-incubation of substrate with luciferase, ATP and buffer prior to adding trypsin, a substrate/luciferase/ATP mix was incubated overnight in the dark, at room temperature. […]

Km [1]: ~0.6 µM
Molecule: O=C(O)[C@H]1CSC(c2nc3ccc(O)cc3s2)=N1 [luciferin]

more sensitive than DEVD-Rho-110 (caspase 3; FIG. 10, Example 3): 10-100 times | sensitivity greater than the Arg-Rho110 (caspase 3; depending on the time of the readings, FIG. 10): 50-300 fold | limit of detection (purified caspase) (caspase 3; substrate for caspase 3 and 7, purified caspase, 3 S.D. above background): 0.2 to 0.5 μU
Molecule: N-(Z-Asp-Glu-Val-Asp)-aminoluciferin [DEVD-aminoluciferin]
sensitivity greater than the Arg-Rho110 (Jurkat cells; 1 hour time point): 10 fold | sensitivity greater than the Arg-Rho110 (Jurkat cells; at 4 hours): about 2 fold | limit of detection of caspase expressing cells (Jurkat cells; at 1 hour): 15 cells

limit of detection (trypsin) (trypsin): 3.0 pg | sensitivity greater than Arg-Rho-110 (trypsin; depending on the time of the reading, FIG. 9): 3-10 fold and 3 to 10 fold | less enzyme detected / more sensitive than fluorescence-based assay (trypsin; luminescent vs rhodamine-110 trypsin substrate): 4-10 times
Molecule: Cbz-modified lysinyl-aminoluciferin [Lys-aminoluciferin]

limit of detection (trypsin) (trypsin): 12 to 30 pg | limit of detection (trypsin) (trypsin; listed as arginine2-rhodamine-110): 12 to 30 pg
Molecule: N=C(N)NCCCC(NC(=O)OCc1ccccc1)C(=O)Nc1ccc2c(c1)Oc1cc(NC(=O)C(CCCNC(=N)N)NC(=O)OCc3ccccc3)ccc1C21OC(=O)c2ccccc21 (stereo not drawn) [Arg-Rho-110, reference compound]
